According to PubChem BioAssay (NCI):
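Where inhibition never reached the appropriate level, the endpoint shown equals the highest concentration tested. Otherwise, values were interpolated linearly from a five-concentration, 48-hour dose response in 96-well plates. GI50 is the concentration that inhibits growth by half. The concentration for full growth arrest is given as TGI.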

Columns and labels:
Assay in all cases: NCI-60 cell line screen, 48 h
786-0 renal = test system: 786-0 renal
A498 renal = test system: A498 renal
A549 NSCLC = test system: A549 NSCLC
ACHN renal = test system: ACHN renal
BT-549 breast = test system: BT-549 breast
CAKI-1 renal = test system: CAKI-1 renal
CCRF-CEM leukemia = test system: CCRF-CEM leukemia
COLO 205 colon = test system: COLO 205 colon
DU-145 prostate = test system: DU-145 prostate
EKVX NSCLC = test system: EKVX NSCLC
HCC-2998 colon = test system: HCC-2998 colon
HCT-116 colon = test system: HCT-116 colon
HCT-15 colon = test system: HCT-15 colon
HL-60(TB) leukemia = test system: HL-60(TB) leukemia
HOP-62 NSCLC = test system: HOP-62 NSCLC
HOP-92 NSCLC = test system: HOP-92 NSCLC
HS 578T breast = test system: HS 578T breast
HT29 colon = test system: HT29 colon
IGROV1 ovarian = test system: IGROV1 ovarian
K-562 leukemia = test system: K-562 leukemia
KM12 colon = test system: KM12 colon
LOX IMVI melanoma = test system: LOX IMVI melanoma
M14 melanoma = test system: M14 melanoma
MALME-3M melanoma = test system: MALME-3M melanoma
MCF7 breast = test system: MCF7 breast
MDA-MB-231 breast = test system: MDA-MB-231 breast
MDA-MB-435 = test system: MDA-MB-435
MDA-MB-468 breast = test system: MDA-MB-468 breast
MOLT-4 leukemia = test system: MOLT-4 leukemia
NCI-H226 lung = test system: NCI-H226 lung
NCI-H23 lung = test system: NCI-H23 lung
NCI-H460 lung = test system: NCI-H460 lung
NCI-H522 lung = test system: NCI-H522 lung
OVCAR-3 ovarian = test system: OVCAR-3 ovarian
OVCAR-4 ovarian = test system: OVCAR-4 ovarian
OVCAR-5 ovarian = test system: OVCAR-5 ovarian
OVCAR-8 ovarian = test system: OVCAR-8 ovarian
PC-3 prostate = test system: PC-3 prostate
RPMI-8226 leukemia = test system: RPMI-8226 leukemia
RXF 393 renal = test system: RXF 393 renal
SF-268 CNS = test system: SF-268 CNS
SF-295 CNS = test system: SF-295 CNS
SF-539 CNS = test system: SF-539 CNS
SK-MEL-2 melanoma = test system: SK-MEL-2 melanoma
SK-MEL-28 melanoma = test system: SK-MEL-28 melanoma
SK-MEL-5 melanoma = test system: SK-MEL-5 melanoma
SK-OV-3 ovarian = test system: SK-OV-3 ovarian
SN12C renal = test system: SN12C renal
SNB-19 CNS = test system: SNB-19 CNS
SNB-75 CNS = test system: SNB-75 CNS
SR leukemia = test system: SR leukemia
SW-620 colon = test system: SW-620 colon
T-47D breast = test system: T-47D breast
TK-10 renal = test system: TK-10 renal
U251 CNS = test system: U251 CNS
UACC-257 melanoma = test system: UACC-257 melanoma
UACC-62 melanoma = test system: UACC-62 melanoma
UO-31 renal = test system: UO-31 renal

COc1cc(/C=N/NC(=O)c2ccc3nc(-c4ccc(Cl)cc4)[nH]c3c2)cc(OC)c1OC
GI50 (786-0 renal): 4.88 µM
TGI (786-0 renal): 18.7 µM
GI50 (A498 renal): 26.4 µM
TGI (A498 renal): 77.6 µM
GI50 (A549 NSCLC): 7.55 µM
TGI (A549 NSCLC): 38.4 µM
GI50 (ACHN renal): 7.93 µM
TGI (ACHN renal): > 100 µM
GI50 (BT-549 breast): 2690 nM
TGI (BT-549 breast): 9.27 µM
GI50 (CAKI-1 renal): 11.2 µM
TGI (CAKI-1 renal): 30.8 µM
GI50 (CCRF-CEM leukemia): 6.27 µM
TGI (CCRF-CEM leukemia): > 100 µM
GI50 (COLO 205 colon): 2840 nM
TGI (COLO 205 colon): 24.4 µM
GI50 (DU-145 prostate): 6.77 µM
TGI (DU-145 prostate): 20.9 µM
GI50 (EKVX NSCLC): 14.8 µM
TGI (EKVX NSCLC): 97.2 µM
GI50 (HCC-2998 colon): 11.1 µM
TGI (HCC-2998 colon): 29.3 µM
GI50 (HCT-116 colon): 3.26 µM
TGI (HCT-116 colon): 10.6 µM
GI50 (HCT-15 colon): 73 µM
TGI (HCT-15 colon): > 100 µM
GI50 (HL-60(TB) leukemia): 3.9 µM
TGI (HL-60(TB) leukemia): 60.4 µM
GI50 (HOP-62 NSCLC): 4.68 µM
TGI (HOP-62 NSCLC): 16.4 µM
GI50 (HOP-92 NSCLC): 5.95 µM
TGI (HOP-92 NSCLC): 23.2 µM
GI50 (HS 578T breast): 2580 nM
TGI (HS 578T breast): 7 µM
GI50 (HT29 colon): 2980 nM
TGI (HT29 colon): 15.5 µM
GI50 (IGROV1 ovarian): 11 µM
TGI (IGROV1 ovarian): 30.8 µM
GI50 (K-562 leukemia): 1960 nM
TGI (K-562 leukemia): 6.33 µM
GI50 (KM12 colon): 4.5 µM
TGI (KM12 colon): 17.9 µM
GI50 (LOX IMVI melanoma): 4.67 µM
TGI (LOX IMVI melanoma): 16.1 µM
GI50 (M14 melanoma): 3.77 µM
TGI (M14 melanoma): 21.1 µM
GI50 (MALME-3M melanoma): 1120 nM
TGI (MALME-3M melanoma): 3.36 µM
GI50 (MCF7 breast): 663 nM
TGI (MCF7 breast): 12.5 µM
GI50 (MDA-MB-231 breast): 3.39 µM
TGI (MDA-MB-231 breast): 11.1 µM
GI50 (MDA-MB-435): 4.13 µM
TGI (MDA-MB-435): 15.3 µM
GI50 (MDA-MB-468 breast): 3.27 µM
TGI (MDA-MB-468 breast): 10.1 µM
GI50 (MOLT-4 leukemia): 3.58 µM
TGI (MOLT-4 leukemia): 28.1 µM
GI50 (NCI-H226 lung): 1310 nM
TGI (NCI-H226 lung): 16.1 µM
GI50 (NCI-H23 lung): 4.72 µM
TGI (NCI-H23 lung): 18.8 µM
GI50 (NCI-H460 lung): 3.19 µM
TGI (NCI-H460 lung): 10.2 µM
GI50 (NCI-H522 lung): 4.9 µM
TGI (NCI-H522 lung): 20.9 µM
GI50 (OVCAR-3 ovarian): 2280 nM
TGI (OVCAR-3 ovarian): 4.88 µM
GI50 (OVCAR-4 ovarian): 2350 nM
TGI (OVCAR-4 ovarian): 7.29 µM
GI50 (OVCAR-5 ovarian): 15.6 µM
TGI (OVCAR-5 ovarian): 41.2 µM
GI50 (OVCAR-8 ovarian): 3.87 µM
TGI (OVCAR-8 ovarian): 18.9 µM
GI50 (PC-3 prostate): 5.73 µM
TGI (PC-3 prostate): > 100 µM
GI50 (RPMI-8226 leukemia): 3.21 µM
TGI (RPMI-8226 leukemia): > 100 µM
GI50 (RXF 393 renal): 2220 nM
TGI (RXF 393 renal): 9.02 µM
GI50 (SF-268 CNS): 4.4 µM
TGI (SF-268 CNS): 20.5 µM
GI50 (SF-295 CNS): 4.18 µM
TGI (SF-295 CNS): 15.9 µM
GI50 (SF-539 CNS): 2020 nM
TGI (SF-539 CNS): 6.98 µM
GI50 (SK-MEL-2 melanoma): 11 µM
TGI (SK-MEL-2 melanoma): 25 µM
GI50 (SK-MEL-28 melanoma): 1830 nM
TGI (SK-MEL-28 melanoma): 6.78 µM
GI50 (SK-MEL-5 melanoma): 2830 nM
TGI (SK-MEL-5 melanoma): 12.2 µM
GI50 (SK-OV-3 ovarian): 15 µM
TGI (SK-OV-3 ovarian): 38.1 µM
GI50 (SN12C renal): 3.22 µM
TGI (SN12C renal): 11 µM
GI50 (SNB-19 CNS): 3.42 µM
TGI (SNB-19 CNS): 10.5 µM
GI50 (SNB-75 CNS): 1280 nM
TGI (SNB-75 CNS): 6.68 µM
GI50 (SR leukemia): 3.76 µM
TGI (SR leukemia): 19.1 µM
GI50 (SW-620 colon): 4.4 µM
TGI (SW-620 colon): 17.4 µM
GI50 (T-47D breast): 3.48 µM
TGI (T-47D breast): 21 µM
GI50 (TK-10 renal): 28.8 µM
TGI (TK-10 renal): > 100 µM
GI50 (U251 CNS): 2590 nM
TGI (U251 CNS): 5.9 µM
GI50 (UACC-257 melanoma): 4.67 µM
TGI (UACC-257 melanoma): 18.8 µM
GI50 (UACC-62 melanoma): 1240 nM
TGI (UACC-62 melanoma): 12.2 µM
GI50 (UO-31 renal): > 100 µM
TGI (UO-31 renal): > 100 µM
